Experimental data from US20200288683A1, “LOSS OF FUNCTION RODENT MODEL OF SOLUTE CARRIER 39 MEMBER 5” (Regeneron Pharmaceuticals, Inc., priority 2019, published 2020).

What was measured:
[1] = system: LKB1/AMPK and AKT signaling pathways in human hepatoma HepG2 cells; experiment: Zinc activation of LKB1/AMPK and AKT signaling in HepG2 cells (immunoblot); type: cell-based; settings: acute, FIG. 12A
Description: (§1) FIGS. 12A-12B. […] 1° Hu Hepatocytes* (5-donor pool): HM CPP5, Thermofisher.
(§2) Liver protein was extracted using RIPA buffer (Cell signaling technology, Cat #9806) with Halt Protease & Phosphatase Inhibitor Cocktail (ThermoFisher Scientific, Cat #78440). Five microgram protein of each sample were separated in NuPAGE 4-12% Bis-Tris protein gel (Invitrogen, Cat # WG1403BOX), and transferred to nitrocellulose membrane using Trans-Blot® Turbo™ Transfer System (BioRad). Blotting was performed using the following Cell Signaling Technology antibodies: Phospho-AMPKa (Thr172) (Cell signaling technology, Cat #2535), AMPKa (Cell signaling technology, Cat #5831), 13-Actin (Sigma, Cat #5441), Phospho-AKT (Ser473) (Cell signaling technology, Cat #4060), AKT (Cell signaling technology, Cat #9272), Phospho-LKB1 (Ser428) (Cell signaling technology, Cat #3482), LKB1 (Cell signaling technology, Cat #3050), rabbit IgG conjugated to horseradish peroxidase (HRP) (Cell signaling technology, Cat #7074) and mouse IgG conjugated to HRP (Cell signaling technology, Cat #7076). Blots were developed using SuperSignal West Femto Substrate (ThermoFisher Scientific, Cat #34095). Signals were captured using ImageQuant LAS4000 (GE Healthcare).

[2] = system: LKB1/AMPK and AKT signaling pathways in human primary hepatocytes; experiment: Zinc activation of LKB1/AMPK and AKT signaling in human primary hepatocytes (immunoblot); type: cell-based; settings: human primary hepatocytes (5-donor pool, HM CPP5, Thermofisher); acute; FIG. 12B
Description: as §1, §2

Which “activation of LKB1/AMPK and AKT signaling pathways” value [1] does the source give for `[Zn]` [Zinc] here?
The value was “activates LKB1/AMPK and AKT signaling pathways in dose dependent manner”.

And the “activation of LKB1/AMPK and AKT signaling pathways” value [2]?
The value was “activates LKB1/AMPK and AKT signaling pathways in dose dependent manner”.
